In patent US11091815B2, “Integrated methods for treating lignocellulosic material” (VIRDIA, LLC, priority 2015, dated 2021):
Read-outs that look alike come from different tables or passages of the source.

Test: Partition coefficient in a two phase system of water and MEK
Type: physicochemical
Procedure: Water and methylethyl ketone (MEK) were shaken for several minutes to allow saturation of each phase. The phases were separated. An excess amount of fumaric acid was stirred at 40° C. in each phase for 5 hours in a closed container. A sample of the solution was diluted with water and filtered. The concentration of fumaric acid was determined by HPLC by injecting 1-20 μL onto a Bio-Rad Aminex HPX-87H 7.2 mm column, using 0.003 M H2SO4 as eluent, flow rate 0.6 mL/min, temperature 65° C., and an RI detector. The saturated solution was held in a thermostated bath at 25° C., 10° C., 4° C. and 0° C. and allowed to equilibrate at each temperature. A sample of each solution was taken, diluted with water and injected onto the HPLC to determine fumaric acid concentration. Similarly, excess amounts of fumaric acid and Ca(OH)2 were shaken with each phase and the concentration of fumaric acid determined by HPLC in a diluted, filtered sample.
An excess amount of fumaric acid was shaken overnight at 4° C. in a biphasic system of water and MEK. The fumaric acid concentration in each phase was determined by HPLC as described in Example 4. Similarly, excess amounts of both fumaric acid and calcium hydroxide were equilibrated with a biphasic system of water and MEK. The partition coefficient was calculated as:
[formula] K was determined to be 8.6 for fumaric acid and 0.5 for calcium fumarate.

O=C([O-])/C=C/C(=O)[O-].[Ca+2] [calcium fumarate]
partition coefficient K (biphasic system of water and MEK, excess solid shaken overnight at 4° C., concentration in each phase by HPLC, calcium fumarate: excess fumaric acid and calcium hydroxide): 0.5

O=C(O)/C=C/C(=O)O [fumaric acid]
partition coefficient K: 8.6
